Patent US12552771B2, “Carboxylic acid containing azetidinyl compounds for the treatment of neurodegenerative diseases” (Celgene Corporation, priority 2021, dated 2026)
Structures can show the parent of a compound that is named as a salt.

Each compound was assayed against T1, S1P5 receptors (Homo sapiens, UniProt Q9H228) (assay: [35S]-GTPγS binding assay with CHO-S1P5 receptor membranes). Settings: membranes of CHO cells expressing recombinant S1P5 receptors; measure of S1P5 agonism.
T1 construct: expressed in transfected cells; host or cells: CHO cells (membranes)
T1 sequence (Q9H228 whole entry): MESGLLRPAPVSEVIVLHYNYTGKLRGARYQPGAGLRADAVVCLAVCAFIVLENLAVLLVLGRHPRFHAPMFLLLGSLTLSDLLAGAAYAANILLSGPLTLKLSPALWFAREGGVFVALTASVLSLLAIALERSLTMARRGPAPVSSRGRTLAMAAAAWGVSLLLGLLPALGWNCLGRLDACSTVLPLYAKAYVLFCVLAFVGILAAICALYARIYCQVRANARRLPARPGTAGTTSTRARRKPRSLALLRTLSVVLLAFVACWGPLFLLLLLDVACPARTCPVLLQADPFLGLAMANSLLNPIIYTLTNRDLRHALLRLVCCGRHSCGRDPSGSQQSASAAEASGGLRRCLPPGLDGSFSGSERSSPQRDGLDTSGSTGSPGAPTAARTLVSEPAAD
Assay type: biochemical
Procedure: CHO cells expressing recombinant S1P5 receptors were cultured in 500 cm^2 culture trays and, once confluent, rinsed and detached with cell-lifting buffer (10 mM HEPES, 154 mM NaCl, 6.85 mM EDTA, pH 7.4). Cells were then pelleted by centrifugation, resuspended, and homogenized in membrane preparation buffer (10 mM HEPES and 10 mM EDTA, pH 7.4) using a Polytron PT 1200E homogenizer (Kinematica, Luzern, Switzerland). Cellular proteins were pelleted by centrifugation at 48,000×g at 4° C. for 30 minutes. The resulting supernatant was discarded, and the pellet was re-suspended again in membrane preparation buffer, homogenized for a second time, and then centrifuged again as described above. The final cellular protein pellet was suspended in ice cold resuspension buffer (10 mM HEPES and 0.1 mM EDTA, pH 7.4), divided into aliquots, and stored at −80° C. until use.
Functional binding assays for [^35]-GTPγS were performed in 96-well non-binding surface plates with a final volume of 200 μL. The test compounds were serially diluted in DMSO and added to assay plates using a Tecan D300E digital printer with a total volume of […]. The control sphingosine-1-phosphate (SiP) was prepared separately by preparing a 400 μM stock solution from a 100 nmol pellet of SiP in 10 mM Na2CO3 with 2% […]. The serial dilution of SiP was done using complete assay buffer (20 mM HEPES, 10 mM MgCl2, 100 mM NaCl, 1 mM EDTA, 0.1% fatty acid free bovine serum albumin (BSA), and 30 μg/mL saponin, pH 7.4) and transferred to wells already containing 0.4 μL DMSO. All the wells were then loaded to a total volume of 40 μL of complete assay buffer, except the non-specific binding (NSB) wells. For NSB wells, 40 μL/well of 50 μM GTPγS (Sigma Aldrich, cat #G8634, St. Louis, MO) was added to wells containing 0.4 μL of DMSO. The assay was started by the addition of 120 μL/well of CHO-S1P receptor membrane solution containing 40 μg/mL of membrane protein, 16.67 μM guanosine diphosphate (GDP; Sigma Aldrich, cat #G7127, St. Louis, MO), and 2.5 mg/mL of WGA PVT SPA beads in complete buffer. Assay plates were then sealed and incubated at room temperature with gentle agitation for 30 minutes. Next, 40 μL/well of 1 nM of [^35]-GTPγS (PerkinElmer, cat #NEG030X250UC, Waltham, MA) in basic assay buffer (20 mM HEPES, 10 mM MgCl2, 100 mM NaCl, and 1 mM EDTA, pH7.4) was added to the assay plates to yield a final concentration of 200 pM and the plates were further incubated for 40 minutes at room temperature with gentle agitation. The assay was terminated by centrifugation of the plates at 1000 rpm for 3 minutes using an Eppendorf 5810R centrifuge (Eppendorf, Hamburg, Germany) and G protein bound radioactivity was quantitated using a MicroBeta2 microplate scintillation counter (PerkinElmer, Waltham, MA). As G protein bound radioactivity directly correlates to receptor activation and coupling to the G protein, this assay is a measure of S1P5 agonism.

SMILES	EC50
CCc1cc(C2CN(c3c(Cl)cccc3Cl)C2)cc(CC)c1CN1CCC(C(=O)O)CC1 [Compound 52, 1-(4-(1-(2,6-dichlorophenyl)azetidin-3-yl)-2,6-diethylbenzyl)piperidine-4-carboxylic acid]	≤ 0.01 µM
CC(C)(c1ccc(C2CN(c3c(Cl)cccc3Cl)C2)nc1)N1CCC(C(=O)O)CC1 [Compound 87, 1-(2-(6-(1-(2,6-dichlorophenyl)azetidin-3-yl)pyridin-3-yl)propan-2-yl)-piperidine-4-carboxylic acid]	0.01 to 0.1 µM
O=C(O)C1CCN(Cc2ccc(N3CC(c4c(Cl)cccc4Cl)C3)c(F)c2)CC1 [Compound 34, 1-(4-(3-(2,6-dichlorophenyl)azetidin-1-yl)-3-fluorobenzyl)piperidine-4-carboxylic acid]	≤ 0.01 µM
Cc1cc(C2CN(c3c(Cl)cccc3Cl)C2)cc(C)c1CN1CCC(C(=O)O)CC1(C)C (stereo not shown) [Compound 65, 1-(4-(1-(2,6-dichlorophenyl)azetidin-3-yl)-2,6-dimethylbenzyl)-2,2-dimethylpiperidine-4-carboxylic acid]	0.01 to 0.1 µM
Cc1cc(C2CN(c3c(Cl)cccc3Cl)C2)cc(C)c1CN1CC[C@@H](C(=O)O)C1 [Compound 60, (R)-1-(4-(1-(2,6-dichlorophenyl)azetidin-3-yl)-2,6-dimethylbenzyl) pyrrolidine-3-carboxylic acid]	≤ 0.01 µM
Cc1cc(C2CN(c3ccccc3)C2)cc(C)c1CN1CCC(C(=O)O)CC1 [Compound 45, 1-(2,6-dimethyl-4-(1-phenylazetidin-3-yl)benzyl)piperidine-4-carboxylic acid]	0.1 to 1 µM
Cc1cc(C2CN(c3c(Cl)cccc3Cl)C2)cc(C)c1CN1CCC(C)(C(=O)O)CC1 [Compound 90, 1-(4-(1-(2,6-dichlorophenyl)azetidin-3-yl)-2,6-dimethylbenzyl)-4-methyl-piperidine-4-carboxylic acid, formic acid salt]	≤ 0.01 µM
O=C(O)C1CCN(Cc2ccc(C3CN(c4c(Cl)cccc4Cl)C3)cc2C2CC2)CC1 [Compound 56, 1-(2-cyclopropyl-4-(1-(2,6-dichlorophenyl)azetidin-3-yl)benzyl)piperidine-4-carboxylic acid]	≤ 0.01 µM
O=C(O)C1CCN(C2CCc3cc(C4CN(c5c(F)cccc5F)C4)ccc32)CC1 (single isomer, unassigned) [Compound 2b, 1-(5-(1-(2,6-difluorophenyl)azetidin-3-yl)-2,3-dihydro-1H-inden-1-yl)-piperidine-4-carboxylic acid]	1 to 10 µM
Cc1cc(CN2CCC(C(=O)O)CC2)cc(C)c1N1CC(F)(c2c(Cl)cccc2Cl)C1 [Compound 36, 1-(4-(3-(2,6-dichlorophenyl)-3-fluoroazetidin-1-yl)-3,5-dimethylbenzyl)-piperidine-4-carboxylic acid]	0.01 to 0.1 µM
O=C(O)C1CCN(C2CCc3cc(N4CC(c5c(F)cccc5F)C4)ccc32)CC1 (single isomer, unassigned) [Compound 9a, 1-(5-(3-(2,6-difluorophenyl)azetidin-1-yl)-2,3-dihydro-1H-inden-1-yl)piperidine-4-carboxylic acid]	≤ 0.01 µM
Cc1cc(CN2CCC(C(=O)O)CC2)cc(C)c1C1CN(c2c(Cl)cccc2Cl)C1 [Compound 20, 1-(4-(1-(2,6-dichlorophenyl)azetidin-3-yl)-3,5-dimethylbenzyl)piperidine-4-carboxylic acid]	≤ 0.01 µM
Cc1cc(C2CN(c3c(Cl)cccc3Cl)C2)cc(C)c1CN1CCC(C(=O)O)CC1 [Compound 15, 1-(4-(1-(2,6-dichlorophenyl)azetidin-3-yl)-2,6-dimethylbenzyl)piperidine-4-carboxylic acid]	≤ 0.01 µM
Cc1cc(C2CN(c3c(Cl)cccc3Cl)C2)ccc1C(C)N1CCC(C(=O)O)CC1 (single isomer, unassigned) [Compound 16b, 1-(1-(4-(1-(2,6-dichlorophenyl)azetidin-3-yl)-2-methylphenyl)-ethyl)piperidine-4-carboxylic acid]	≤ 0.01 µM
Cc1cc(C2CN(c3c(C)cccc3C3CC3)C2)cc(C)c1CN1CCC(C(=O)O)CC1 [Compound 71, 1-(4-(1-(2-cyclopropyl-6-methylphenyl)azetidin-3-yl)-2,6-dimethylbenzyl)-piperidine-4-carboxylic acid]	≤ 0.01 µM

More lines, now with the values ahead:

EC50	SMILES
≤ 0.01 µM	Cc1cc(C2CN(c3c(Cl)cccc3Cl)C2)cc(F)c1CN1CCC(C(=O)O)CC1 [Compound 50, 1-(4-(1-(2,6-dichlorophenyl)azetidin-3-yl)-2-fluoro-6-methylbenzyl)-piperidine-4-carboxylic acid]
≤ 0.01 µM	Cc1cc(C2CN(c3c(Cl)cccc3Cl)C2)cc2c1C(N1CCC(C(=O)O)CC1)CC2 (racemic) [Compound 5, 1-(5-(1-(2,6-dichlorophenyl)azetidin-3-yl)-7-methyl-2,3-dihydro-1H-inden-1-yl)piperidine-4-carboxylic acid]
0.01 to 0.1 µM	O=C(O)C1CCN(Cc2ccc(N3CC(c4c(Cl)cccc4Cl)C3)cc2)CC1 [Compound 24, 1-(4-(3-(2,6-dichlorophenyl)azetidin-1-yl)benzyl)piperidine-4-carboxylic acid]
0.01 to 0.1 µM	Cc1cc(C2CN(c3c(Cl)cccc3Cl)C2)cc(C#N)c1CN1CCC(C(=O)O)CC1 [Compound 58, 1-(2-cyano-4-(1-(2,6-dichlorophenyl)azetidin-3-yl)-6-methylbenzyl)-piperidine-4-carboxylic acid]
1 to 10 µM	O=C(O)C1CCN(C2CCc3cc(C4CN(c5cccc(F)c5)C4)ccc32)CC1 (single isomer, unassigned) [Compound 3b, 1-(5-(1-(3-fluorophenyl)azetidin-3-yl)-2,3-dihydro-1H-inden-1-yl)piperidine-4-carboxylic acid]
≤ 0.01 µM	O=C(O)C1CCN(C2CCc3cc(C4CN(c5c(Cl)cccc5Cl)C4)cc(F)c32)CC1 (racemic) [Compound 6, 1-(5-(1-(2,6-dichlorophenyl)azetidin-3-yl)-7-fluoro-2,3-dihydro-1H-inden-1-yl)piperidine-4-carboxylic acid]
0.1 to 1 µM	Cc1cc(C2CN(c3c(Cl)cccc3Cl)C2)c(C)nc1CN1CCC(C(=O)O)CC1 [Compound 82, 1-((5-(1-(2,6-dichlorophenyl)azetidin-3-yl)-3,6-dimethylpyridin-2-yl)-methyl)piperidine-4-carboxylic acid]
0.1 to 1 µM	Cc1cc(C2CN(c3ccc(C4CC4)c(Cl)c3)C2)cc(C)c1CN1CCC(C(=O)O)CC1 [Compound 49, 1-(4-(1-(3-chloro-4-cyclopropylphenyl)azetidin-3-yl)-2,6-dimethylbenzyl)-piperidine-4-carboxylic acid]
0.01 to 0.1 µM	O=C(O)C1CCN(C2CCc3cc(C4CN(c5ccccc5F)C4)ccc32)CC1 (single isomer, unassigned) [Compound 4a, 1-(5-(1-(2-fluorophenyl)azetidin-3-yl)-2,3-dihydro-1H-inden-1-yl)piperidine-4-carboxylic acid]
0.01 to 0.1 µM	O=C(O)C1CCN(Cc2ccc(C3CN(c4c(Cl)cccc4Cl)C3)cc2)CC1 [Compound 11, 1-(4-(1-(2,6-dichlorophenyl)azetidin-3-yl)benzyl)piperidine-4-carboxylic acid]
1 to 10 µM	O=C(O)C1CN(C2CCc3cc(C4CN(c5cccc(F)c5)C4)ccc32)C1 (single isomer, unassigned) [Compound 8a, 1-(5-(1-(3-fluorophenyl)azetidin-3-yl)-2,3-dihydro-1H-inden-1-yl)azetidine-3-carboxylic acid]
0.1 to 1 µM	Cc1cc(C2CN(c3cccc(F)c3)C2)cc(C)c1CN1CCC(C(=O)O)CC1 [Compound 47, 1-(4-(1-(3-fluorophenyl)azetidin-3-yl)-2,6-dimethylbenzyl)piperidine-4-carboxylic acid]
0.1 to 1 µM	Cc1cc(C2CN(c3cccc4ccccc34)C2)cc(C)c1CN1CCC(C(=O)O)CC1 [Compound 75, 1-(2,6-dimethyl-4-(1-(naphthalen-1-yl)azetidin-3-yl)benzyl)piperidine-4-carboxylic acid]
